Legend:
[1] = biological target: T1, NAC peptide (Homo sapiens, UniProt P37840); assay: Electron microscopy (EM) analysis of NAC fiber formation in the fibrillogenesis assay; format: biochemical; conditions: for EM Score: amount of fibers compared to NAC alone (100% fibers), 10 frames of a 300-mesh grid
T1 construct: a 35 amino acid peptide corresponding to residues 61 to 95 of the α-synuclein protein; made in house; host or cells: chemical solid-phase peptide synthesis (Fmoc), not expressed
Protocol: (§1) Fibrillogenesis assays were employed to identify test compounds that inhibit NAC's ability to assemble into fibers. Following removal of HFIP by evaporation under N2 gas, 20 μM NAC peptide is incubated in the assay buffer (0.02M Tris, 0.15 M NaCl, 0.005% NaN3, 100 uM EDTA) at 37° C. in a Perkin-Elmer HTS 7000 plus microplate reader with shaking for 1 minute every twenty minutes. The presence of fibers can be monitored by three different methods.
(§2) The following assays were set up in clear polystyrene 96 well microplates by combining 125 μL of 40 μM NAC peptide with 125 μL of 200 μM test compound in 0.02M Tris, 0.15 M NaCl, 0.005% NaN3, […]. The microplates were sealed with a plastic sheet and incubated at 37° C. in a Perkin-Elmer HTS 7000 microplate reader with shaking for 1 minute, every 20 minutes. • Thioflavin T Analysis. To perform this assay 5 μM Thioflavin T is added to the NAC assembly conditions described above. The fluorescence is measured at 430 excitation/485 emission every twenty minutes with a Perkin-Elmer HTS microplate reader for the duration of the assay. […] This assay allows for the identification of compounds that can inhibit this increase in fluorescence upon incubation. • Turbidity Analysis. Alternatively, NAC peptide that has been incubated with test compounds in the appropriate assembly conditions can be analyzed by reading the absorbance at 405 nm to follow the turbidity of the solution which is also an indication of the formation of aggregates. • Circular Dichroism (CD) Analysis. […] This assay allows for the identification of compounds that can prevent NAC from adopting a β-sheet/β-turn conformation upon incubation. • At the appropriate time point, during the incubation, the test solutions were transferred to 0.1-cm path length quartz cuvettes and scanned by CD spectroscopy between 190 and 260 nm, with a resolution of 0.1 nm and a bandwidth of 1 nm using a Jasco J-715 spectropolarimeter at 37° C. […] At the time point at which CD scans are performed a 3 μl aliquot is removed from the sample, spotted onto a Formvar grid and then negatively stained with 4% uranyl acetate. The grids were examined for the presence of fibrils and amorphous aggregates using a JOEL 2000 transmission electron microscope at a 25,000 × magnification. This assay can be used to confirm the absence of fibers in the presence of compounds which inhibit NAC assembly by ThT and CD. The final results were obtained by averaging 10 complete sectors.
Analysis by Electron Microscopy: The fibrillogenesis assays performed for CD analysis were also spotted for EM. The electron micrographs are visually examined and a score is assigned as follows. Briefly, 10 representative frames from a 300-mesh grid are analyzed and given a score representing the amount of fibers formed in the sample as compared to a micrograph with NAC alone without a test compound (100% fibers). A score was assigned based on this analysis on a scale from 0% to 100% fibers: (−) indicates an observation of less than about 25% fibers; (+) indicates about 25% fibers; (++) about 50% fibers; (+++) indicates about 75% fibers; and (++++) 100% fibers. […]

[2] = biological target: T1, NAC peptide; assay: Binding of compounds to NAC peptide by electrospray mass spectrometry; conditions: area of bound NAC-compound complex peaks divided by area of unbound NAC peaks; 5:1 compound:NAC, pH 7.4, 6.6% EtOH
Protocol: The ability of the compounds of the present invention to bind to NAC peptide in aqueous solution was evaluated. The binding ability correlates to the intensities of the peptide-compound complex peaks observed by the Electrospray Mass Spectrum. Millipore distilled deionized water was used to prepare all aqueous solutions. For pH determination a Beckman (Φ36 pH meter fitted with a Corning Semi-Micro Combination pH Electrode was employed.
The optimal cone voltage was determined to be 20V.
Mass spectrometry: Mass spectrometric analysis was performed using a Waters ZQ 4000 mass spectrometer equipped with a Waters 2795 sample manager. MassLynx 4.0 (earlier by MassLynx 3.5) was used for data processing and analysis. Test compounds were mixed with disaggregated peptides in aqueous media (6.6% EtOH) at a 5:1 ratio (20 μM NAC: 100 μM of test compound or 40 μM NAC : 200 μM of test compound). The pH of the mixture was adjusted to 7.4 (±0.2) using 0.1% NaOH (3-5 μL). Periodically, NAC peptide solution at 20 μM or 40 μM was also prepared in the same fashion and run as control. The spectra were obtained by introducing the solutions to the electrospray source by direct infusion using a syringe pump at a flow rate of 25 μl/min, and scanning from 100 to 2100 Da in the positive mode. The scan time was 0.9 sec per scan with an inter-scan delay of 0.1 sec and the run time was 5 min for each sample. All the mass spectra were sum of 300 scans. The desolvation and source temperature was 70° C. and the cone and capillary voltage were maintained at 20 V and 3.2 kV respectively.
The total area under the peaks for the bound NAC-compound complex divided by total area under the peaks for unbound NAC was determined for each compound tested.

[3] = biological target: T1, NAC peptide; assay: Circular dichroism (CD) analysis of NAC peptide conformation after incubation with test compounds (fibrillogenesis assay); format: biochemical; set-up: key to CD Result (NAC conformation observed): Random Coil: signifies that the NAC in the sample was observed to have been maintained in its original random coil conformation indicating that the compound coincubated with NAC is active; signifies that the compound was not able to prevent the shift from random coil to β-sheet; β-sheet/β-turn: signifies that the compound was not able to prevent the shift from random coil to β-sheet; Transition: signifies that the NAC was observed to be in the process of converting from random coil to β-sheet indicating that the compound was able to slow down the conformational change and indicates activity; conditions: for CD Result (NAC conformation observed): 125 μL of 40 μM NAC peptide with 125 μL of 200 μM test compound, pH 7.4, 37° C., conformations over repeated trials; for Activity (CD): active if it prevents the transition to β-turn/β-sheet in 50% or more of the trials; for Activity: active trials / trials: number of CD trials in which transition to β-turn/β-sheet was prevented, over trials run
Protocol: 2 mM Solutions were prepared in TBSA buffer (Tris 0.02 M, NaCl 0.15 M, NaN3 0.005%, pH 7.4) and stored at 4° C. For the assays, compounds were diluted to the desired concentrations in TBSAE buffer (Tris 0.02 M, NaCl 0.15 M, NaN3 0.005%, EDTA 100 μM, pH 7.4) and combined with the NAC peptides.
as §1, §2
For compounds that have been tested multiple times, a compound is classified as active if it prevents the transition to β-turn/β-sheet in 50% or more of the trials.

| Activity (EM) [1] | EM Score [1] | CD Result (NAC conformation observed) [3] | Activity (CD) [3] | Activity: active trials / trials [3] | Appearance of NAC fibers by EM ([1]; NAC in the presence of heparin) | Effect on NAC conformation by CD ([3]; NAC incubated in presence of heparin, minimum at 218 nm typical of β-sheet) | Compound | Binding Strength [2] |
| --- | --- | --- | --- | --- | --- | --- | --- | --- |
| Yes | AA+ |  |  |  |  |  | CC[N+](CC)(CC)CCCS(=O)(=O)[O-] [drawing 62] |  |
| Yes | AA+ |  |  |  |  |  | NCCCCS(=O)(=O)O [drawing 63] |  |
|  |  | Random Coil | Yes | 5/5 |  |  | CCCCCCCCCCCCCCS(C)(C)CCCS(=O)(=O)O [compound 10] | + (Weak; when the total binding is between 70% and 30%) |
|  |  | Random Coil | Yes | 4/4 |  |  | CCCCCCCCCCCCS(C)(C)CCCS(C)(=O)=O [compound 9] | − (None; when the total binding is between 30% and 0%) |
|  |  | Random Coil TRansition | Yes | 2/2 |  |  | O=S(=O)(O)OCCCOS(=O)(=O)O [compound 2] | − (None; when the total binding is between 30% and 0%) |
|  |  |  |  |  | longer and more interwined fibers | promotes a conformational change | heparin [reference compound] |  |
|  |  | Random Coil | Yes | 3/3 |  |  | CC[N+](CC)(CC)CCCS(=O)(=O)[O-] [compound 16] | Indeterminant |
|  |  | β-turn transition | Yes | ½ |  |  | NCCCCS(=O)(=O)O [compound 6] | +++ (Strong; when the total binding is 120% and higher) |
| No | +++ ((+++) indicates about 75% fibers) |  |  |  |  |  | O=S(=O)(O)CC(O)CNC1CCCCC1 (stereo not shown) [drawing 64] |  |
|  |  | β-sheet | No | 0/2 |  |  | NCCS(=O)(=O)O [compound 5] | + (Weak; when the total binding is between 70% and 30%) |

| Compound | Activity (EM) [1] | EM Score [1] | CD Result (NAC conformation observed) [3] | Activity (CD) [3] | Activity: active trials / trials [3] | Appearance of NAC fibers by EM ([1]; NAC in the presence of heparin) | Effect on NAC conformation by CD ([3]; NAC incubated in presence of heparin, minimum at 218 nm typical of β-sheet) | Binding Strength [2] |
| --- | --- | --- | --- | --- | --- | --- | --- | --- |
| O=S(=O)(O)CCC[N+]12CCC(CC1)CC2 [drawing 65] | Yes | + ((+) indicates about 25% fibers) |  |  |  |  |  |  |
